{"source": "patent US7385103B2", "about": "“Animal model, cells, and treatment for malignant melanoma” (Rutgers, the State University, priority 2004, dated 2008)", "molecules": {"B1": {"name": "siRNA: siRNA specific for Grm1 nucleic acid, templates SEQ ID NO:3 (top strand) and SEQ ID NO:4 (bottom strand) (nucleic acid)", "sense": "GATCCCGTGGACGGAGATGTCATCATTTCAAGAGAATGATGACATCTCCGTCCATTTTTTGGAAA", "antisense": "GCTTTTCCAAAAAATGGACGGAGATGTCATCATTCTCTTGAAATGATGACATCTCCGTCCACGG", "modifications": "expressed or natural sequence; the letters are possibly those of the target site"}}, "key": {"[1]": {"system": "Grm1-mediated ERK1/2 activation", "experiment": "ERK1/2 phosphorylation in melanoma cells, western blot with phospho-ERK1/2 antibodies", "assay_type": "cell-based, mouse", "details": "for phosphorylation of ERK1/2: 10^−5 M", "experimental": "To examine whether ERK1/2 were activated after Grm1 activation, cells were treated for the indicated times with the agonist Quisqualate. After treatment, melanoma cells were lysed and the activation of ERK1/2 was determined using antibodies against the phosphorylated forms of ERK1/2.\nMelanoma cells lines were transiently transfected with dominant-negative mutants of Grm1 and expression of the Grm1 mutants was analyzed by western blot analysis.\nUpon IP3 accumulation in cells, calcium is released from the endoplasmic reticulum to the cytoplasm, allowing these ions to act as second messengers that bind to calmodulin and further activate calcium-calmodulin-dependent kinases that are capable of activating mitogen-activated protein kinases (MAPKS) (Soderling (1999) Trends Biochem. Sci. 24(6):232-6). Accordingly, it was determined whether IP3 accumulation in the tumor cell lines disclosed herein, upon Grm1 agonist treatment, would yield intracellular calcium signaling that could affect ERK activation. Depletion of intracellular calcium in these cells was obtained by chelating extracellular calcium with EGTA, which obligates calcium to exit the cell in order to maintain calcium homeostasis.\nPIP2 hydrolysis resulting from Grm1 activation leads to the production of IP3 and DAG. DAG can then activate protein kinase C (PKC). […] Thus, it was determined whether the activation of ERK1/2 by Grm1 is also mediated by PKC in the tumor cell lines disclosed herein.\nTo have a minimum amount of the natural ligand (glutamate) present in the growth medium, customized glutamine- and glutamate-free RPMI (RPMI-glu) was used (INVITROGEN™, Carlsbad, Calif.). GLUTAMAX™ (INVITROGEN™), a substitute for glutamate and glutamine, was added to the growth medium at a final concentration of 2 mM, and 10% dialyzed fetal calf serum (INVITROGEN™) was used to supplement the medium. For induction with Grm1 agonist, quisqualate, the cells were grown in RPMI-glu for 3-4 days, plated at 3×10^5 cells per 60-mm plate and serum starved overnight. Several concentrations of quisqualate (10^−4 M to 10^−6 M) and several time points (30 seconds to 120 minutes) were tested for optimal induction. For Grm1 antagonist effects, cells were pretreated for 30 minutes with 10^−5 M of LY367385 before agonist treatment. For PKC inhibitor (RO-31-8220) and calcium chelators (EGTA, BAPTA-AM), cells were pretreated for indicated times before agonist challenge.\nProteins were extracted using lysis buffer (50 mM Tris-HCl, 150 mM NaCl, 1 mM EDTA, 1% NP-40, 5% glycerol, and 1 mM dithiothreitol, pH 7.4) and protease inhibitors (Complete protease inhibitor cocktail tablets, Roche Molecular Biochemicals, Indianapolis, Ind.). Protein concentrations were measured using the BIO-RAD® DC Protein Assay kit (Bio-Rad, Hercules, Calif.). Equal amounts of lysates were loaded in each lane in 7.5 or 10% polyacrylamide gels (BIO-RAD®, Hercules, Calif.). Proteins were transferred to nitrocellulose membranes (Osmonics, Minnetonka, Minn.). Ponceau Red staining of membranes, after transfer, was performed to verify equivalent amounts of protein between samples. Anti-PERK, ERK, PhosphoPKC isoforms, PKC isoforms antibodies were obtained from Cell Signaling Technology, Inc. (Beverly, Mass.)."}, "[2]": {"system": "melanoma cell lines", "experiment": "establishment of melanoma cell lines from amelanotic ear tumors in culture", "assay_type": "cell-based, mouse", "experimental": "To further analyze the signaling events mediated by Grm1 in transformed melanocytes, cell lines derived from ear tumor bearing albino mice (Cohen-Salal, et al. (2001) supra) were generated. Tumors from these mice were sectioned in two halves. Protein extraction was performed on one part of the tumors and western immunoblots were done to verify the ectopic expression of Grm1. The other half of the tumor was used to generate homogeneous in vitro melanoma cell lines by gentle selection of melanocyte cells over keratinocytes and fibroblasts through differential geneticin resistance. Initial efforts to directly establish cell lines on standard culture medium supplemented with geneticin were unsuccessful. […] Based on morphology and growth rate, 10^−5 M quisqualate was sufficient to establish growth in culture. […] Ten cells lines namely LL1A, LL1T, Nu1, Nu2, MMB3A, MMB3T, 4045A, 4045T, 4046T, 4046A, were successfully generated from at least six independent mice tumors. Given that these mouse melanoma cell lines behave very similarly in culture, data presented herein is of representative cell lines. […] Cytoplasmic staining for Grm1 has also been reported in other cellular systems (Tadokoro, et al. (1999) Proc. Natl. Acad. Sci. USA 96:13801-13806). To verify the melanocytic origin of these cells, co-staining of the cells was performed with Tyrp-1. […]"}}}
{"molecule": "CC(=O)OCOC(=O)CN(CC(=O)OCOC(C)=O)c1ccccc1OCCOc1ccccc1N(CC(=O)OCOC(C)=O)CC(=O)OCOC(C)=O", "note": "[BAPTA-AM]", "values": [{"measurement": "ERK activation by quisqualate", "setting": "[1]; preincubation 30 minutes prior to agonist challenge, in calcium-free media", "value": "completely abolished"}, {"measurement": "ERK activation by quisqualate", "setting": "[1]; preincubation 30 minutes prior to agonist challenge, in the presence of extracellular calcium", "value": "dose-dependent decrease in ERK activation"}]}
{"molecule": "O=C(O)CN(CCOCCOCCN(CC(=O)O)CC(=O)O)CC(=O)O", "note": "[EGTA]", "values": [{"measurement": "ERK activation by quisqualate", "setting": "[1]; chelating extracellular calcium to deplete intracellular calcium", "value": "time-dependent decrease in ERK activation"}]}
{"molecule": "Cc1cc(C(=O)O)ccc1[C@H](N)C(=O)O", "note": "[LY367385]", "values": [{"measurement": "activation of ERK1/2 by quisqualate", "setting": "[1]; melanoma lines pretreated 30 minutes with antagonist (10^−5 M) before agonist challenge", "value": "abrogated"}]}
{"molecule": "N[C@@H](Cn1oc(=O)[nH]c1=O)C(=O)O", "note": "[quisqualate, L-quisqualate]", "values": [{"measurement": "quisqualate concentration sufficient to establish growth in culture", "setting": "[2]; based on morphology and growth rate", "value": "10^−5 M"}, {"measurement": "establishment of melanoma cell lines on addition to culture medium", "setting": "[2]; culture medium supplemented with geneticin", "value": "enabled the establishment of melanoma cell lines"}, {"measurement": "phosphorylation of ERK1/2", "setting": "[1]; after 5 minutes of tumor cell stimulation", "value": "increase in the phosphorylation of ERK1/2"}, {"measurement": "phosphorylation of ERK1/2", "setting": "[1]; after 15 minutes of stimulation", "value": "reduced to background levels"}]}
{"molecule": "B1", "values": [{"measurement": "ERK activation by Grm1 agonist", "setting": "[1]; transfected melanoma cells, compared to cells transfected with an unrelated siRNA sequence", "value": "inhibited ERK activation"}]}
